Assay results reported in patent US20240366624A1, “METHODS AND COMPOSITIONS FOR TREATING THROMBOTIC DISEASE” (Washington University, priority 2023, published 2024).

Experiments:
ERO1α = molecular target: T1, ERO1α (Homo sapiens, UniProt Q96HE7); assay: ERO1α activity assay; type: biochemical
T1 sequence (Q96HE7 24-468): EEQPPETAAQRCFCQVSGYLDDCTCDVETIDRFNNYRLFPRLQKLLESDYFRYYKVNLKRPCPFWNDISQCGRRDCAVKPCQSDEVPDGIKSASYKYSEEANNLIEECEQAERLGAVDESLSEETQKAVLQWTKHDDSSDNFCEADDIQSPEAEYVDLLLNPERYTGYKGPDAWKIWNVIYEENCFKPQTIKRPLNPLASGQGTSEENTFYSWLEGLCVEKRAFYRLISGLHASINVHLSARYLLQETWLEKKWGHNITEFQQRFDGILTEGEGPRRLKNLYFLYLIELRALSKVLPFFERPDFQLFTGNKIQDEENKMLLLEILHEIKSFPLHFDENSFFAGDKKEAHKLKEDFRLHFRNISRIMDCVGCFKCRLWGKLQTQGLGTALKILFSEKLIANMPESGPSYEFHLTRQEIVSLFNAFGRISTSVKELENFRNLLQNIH
Excerpt: (§1) FIG. 17(A-F) is an exemplary embodiment of identification of novel ERO1α inhibitors by high throughput screening in accordance with the present disclosure. FIG. 17A: A scheme of an ERO1α activity assay. FIG. 17B: Screening of chemical libraries in the ERO1α activity assay. FIG. 17C: The inhibitory effect of selected compounds on ERO1α activity. FIG. 17D: The inhibitory effect of selected compounds on PDI activity. FIG. 17E: The inhibitory effect of selected compounds on H2O2 activity. FIG. 17F: The inhibitory effect of selected compounds on thiol-reacting activity. The data represent the mean±SD (n=3). *P<0.05, **P<0.01, ***P<0.001, and ****P<0.0001 vs. vehicle control, Student's t-test.
(§2) To identify a novel ERO1α inhibitor, 5800 compounds were screened using an ERO1α activity assay (FIG. 17A and FIG. 17B). […] The selected compounds were further tested in assays measuring PDI, antioxidant, and thiol-reacting activities (FIG. 17D through FIG. 17F). […] B12 inhibited P-selectin exposure and αIIbβ3 activation in agonist-activated mouse and human platelets in a concentration-dependent manner (FIG. 18B through FIG. 18E).

PDI = PDI (Homo sapiens, UniProt P07237); assay: PDI activity assay; type: biochemical
Excerpt: as §1, §2

[1] = H2O2 (antioxidant) activity assay; type: biochemical
Excerpt: as §1, §2

[2] = thiol-reacting (GSH) activity assay; type: biochemical
Excerpt: as §1, §2

[3] = molecular target: T2, MAO-A (monoamine oxidase A) (Homo sapiens, UniProt P21397); assay: MAO-A activity assay; type: biochemical
T2 sequence (P21397 1-527): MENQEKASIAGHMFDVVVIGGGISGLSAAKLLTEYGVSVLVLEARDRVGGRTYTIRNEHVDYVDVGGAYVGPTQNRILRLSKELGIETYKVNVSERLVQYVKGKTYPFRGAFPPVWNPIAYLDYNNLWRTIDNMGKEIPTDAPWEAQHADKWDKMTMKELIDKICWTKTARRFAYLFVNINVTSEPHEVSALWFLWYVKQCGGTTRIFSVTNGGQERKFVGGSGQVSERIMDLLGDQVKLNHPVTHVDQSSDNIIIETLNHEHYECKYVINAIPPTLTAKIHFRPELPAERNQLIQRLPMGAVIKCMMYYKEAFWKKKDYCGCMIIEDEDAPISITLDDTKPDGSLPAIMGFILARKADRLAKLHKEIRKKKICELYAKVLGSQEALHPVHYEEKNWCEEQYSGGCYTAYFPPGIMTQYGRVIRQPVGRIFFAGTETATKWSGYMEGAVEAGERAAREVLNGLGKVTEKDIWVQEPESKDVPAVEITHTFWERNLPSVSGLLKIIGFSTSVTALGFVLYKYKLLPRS

mouse platelets = assay: Flow cytometry of P-selectin exposure and αIIbβ3 integrin activation, mouse platelets; type: cell-based; details: agonist-activated mouse platelets, concentration-dependent
Procedure: FIG. 10(A-E) is an exemplary embodiment of 15E9 not affecting platelet activation and aggregation in accordance with the present disclosure. Mouse platelets were treated with 0.02-0.03 (FIG. 10A P-selectin, FIG. 10B aIIbβ3) or 0.025 U/ml thrombin (FIG. 10C) in the presence of 10 μg/ml mouse IgG2a (IgG2a) or a blocking anti-ERO1α antibody (15E9). Flow cytometry (FIG. 10(A-B)) and aggregation (FIG. 10C) assays were performed. FIG. 10D: Human platelets were treated with 0.025 U/ml thrombin in the presence of mouse IgG2a (mIgG2a) or 10 μg/ml 15E9 and 16B6, followed by measuring aggregation. […] P values determined by unpaired Student's t-test (vs. mIgG1).
FIG. 18(A-R) is an exemplary embodiment of novel small-molecule inhibitors recapitulating the defect in Ero1α (endoplasmic reticulum oxidoreductase 1a)-null platelets in accordance with the present disclosure. […] After incubation with a different concentration of B12-5, the specific interaction between B12-5 and ERO1α was measured by subtracting the nonspecific binding. The KD value was calculated from the Kon and Koff values. […] P values determined by ANOVA and Dunnett test (FIG. 18(B-E), FIG. 18(1-L), and FIG. 18(O-R) [for B12-5]) or Student t test (FIG. 18M, FIG. 18N, and FIG. 18(O-R) [for BAPTA (1,2-bis(o-aminophenoxy)ethane-N,N,N′,N′-tetraacetic acid)]). […]

human platelets = assay: Flow cytometry of P-selectin exposure and αIIbβ3 integrin activation, human platelets; type: cell-based; details: agonist-activated human platelets, concentration-dependent
Excerpt: FIG. 18(A-R) is an exemplary embodiment of novel small-molecule inhibitors recapitulating the defect in Ero1α (endoplasmic reticulum oxidoreductase 1a)-null platelets in accordance with the present disclosure. FIG. 18A: The structure of B12 and its inhibitory effect on ERO1α activity. FIG. 18(B-E): The inhibitory effect of B12 on P-selectin exposure and αIIbβ3 integrin activation in (FIG. 18B and FIG. 18C) mouse and (FIG. 18D and FIG. 18E) human platelets. FIG. 18F: The structure of B12-5 and its inhibitory effect on ERO1α activity. FIG. 18G: A docking model of B12-5-ERO1α (3AHQ) and flavin adenine dinucleotide (FAD)-ERO1α complex. There are pi-sulfur interactions of the phenothiazine head group (B112-5) or a tricyclic ring (FAD) with Met389 and Cys397. Also, there are H bond interactions between the tail/alkyl group and His255, Asn259, and Arg287. […] After incubation with a different concentration of B12-5, the specific interaction between B12-5 and ERO1α was measured by subtracting the nonspecific binding. The KD value was calculated from the Kon and Koff values. […] P values determined by ANOVA and Dunnett test (FIG. 18(B-E), FIG. 18(1-L), and FIG. 18(O-R) [for B12-5]) or Student t test (FIG. 18M, FIG. 18N, and FIG. 18(O-R) [for BAPTA (1,2-bis(o-aminophenoxy)ethane-N,N,N′,N′-tetraacetic acid)]). […]

PDI, sequence (P07237 18-508, species assumed): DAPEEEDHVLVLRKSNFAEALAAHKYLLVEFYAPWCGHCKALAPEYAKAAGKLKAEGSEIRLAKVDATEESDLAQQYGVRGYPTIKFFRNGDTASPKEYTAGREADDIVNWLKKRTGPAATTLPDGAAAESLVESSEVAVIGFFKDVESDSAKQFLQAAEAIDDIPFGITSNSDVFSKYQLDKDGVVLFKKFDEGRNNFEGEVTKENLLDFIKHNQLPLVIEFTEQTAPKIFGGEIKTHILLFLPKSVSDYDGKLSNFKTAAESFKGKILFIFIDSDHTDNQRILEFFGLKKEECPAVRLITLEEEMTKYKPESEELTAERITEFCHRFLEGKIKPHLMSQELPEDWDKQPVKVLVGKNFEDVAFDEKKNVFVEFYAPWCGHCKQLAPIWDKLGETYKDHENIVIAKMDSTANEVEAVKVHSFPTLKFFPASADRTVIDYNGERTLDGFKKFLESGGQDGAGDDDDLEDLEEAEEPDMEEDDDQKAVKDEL

inhibition at 20 µM (ERO1α): 72.9 ± 12%
IC50 (ERO1α; read-out: IC50, ERO1α activity): 12.4 µM
inhibition at 100 µM (PDI): 4.8 ± 1%
effect on PDI activity (PDI; at or up to 100 μM): without affecting
inhibition at 100 µM [3]: 25.3 ± 5%
SMILES: O=C(CSc1nc(O)c2nc[nH]c2n1)N1c2ccccc2Sc2ccccc21 [B12]
H2O2 inhibition at 100 μM (%) ([1]; 100 μM): 4.7 ± 1%
effect on H2O2 (antioxidant) activity ([1]; at or up to 100 μM): without affecting
GSH inhibition at 100 μM (%) ([2]; 100 μM): 5.1 ± 2%
effect on thiol-reacting activity ([2]; at or up to 100 μM): without affecting
P-selectin exposure and αIIbβ3 activation (mouse platelets): inhibited
P-selectin exposure and αIIbβ3 activation (human platelets): inhibited
